Where two headings read alike, the source gives them in different places.
Key:
[1] = Hydrogen sulfide removal in distilled water (autoclave); conditions: distilled water, 5,000 ppm added, 80° C., 5 hours
Experimental: 20 g of distilled water was put into a 100-mL autoclave equipped with a thermometer and a stirrer, and pressurized up to 0.3 MPa with a mixed gas having a composition of 1 vol % of hydrogen sulfide and 99 vol % of nitrogen introduced thereinto. This was stirred until the hydrogen sulfide concentration in the vapor phase part became constant, and then the hydrogen sulfide concentration in the vapor phase part in the autoclave was measured with a Kitagawa gas detector (here, a […] available from Komyo Rikagaku Kogyo K.K. was attached to the gas collector “AP-20”), and was 7,500 ppm by volume. Next, SAL was added thereto in an amount to be 5,000 ppm relative to the distilled water. The amount of SAL added was 1.19 mmol, and the amount of hydrogen sulfide existing in the apparatus was 0.10 mmol. Subsequently, the apparatus was heated up to 80° C. with stirring at 800 rpm to continue the reaction for 5 hours. After the reaction, the system was cooled down to room temperature, and the hydrogen sulfide concentration in the vapor phase part was measured and was 5,000 ppm by volume. The removal rate was 33%.
The same test as in Example 2 was carried out except that acrolein was used in place of SAL. After the reaction, the hydrogen sulfide concentration in the vapor phase part was measured and was 5,000 ppm by volume. The removal rate was 33%.

[2] = Hydrogen sulfide removal in kerosene (three-neck flask); conditions: 20 g kerosene, 1.5 g added, room temperature, 5 hours
Experimental: 20 g of kerosene (available from FUJIFILM Wako Pure Chemical Corporation) was put into a 50-mL three-neck flask, and a mixed gas having a composition of 1 vol % of hydrogen sulfide and 99 vol % of nitrogen was made to circulate therein at a flow rate of 50 mL/min to thereby purge the vapor in the three-neck flask with stirring at 800 rpm. After 2 hours, the circulation of the mixed gas was stopped, then the three-neck flask was sealed up, and the hydrogen sulfide concentration in the vapor phase part in the three-neck flask was measured with a Kitagawa gas detector and was 8,200 ppm by volume. Next, 1.5 g of SAL was added thereto and reacted for 5 hours at room temperature with stirring the apparatus at 800 rpm. After the reaction, the hydrogen sulfide concentration in the vapor phase part in the three-neck flask was measured and was 5,300 ppm by volume. The removal rate was 35%.
After the reaction, the hydrogen sulfide concentration in the vapor phase part in the three-neck flask was measured and was 6,600 ppm by volume. The removal rate was 20%.

[3] = format: physicochemical
Experimental: 50 mL of each of SAL and acrolein was charged in 50-mL three-necked flask, and the contents were subjected to temperature rise to 50° C. in a nitrogen atmosphere. On the occasion when the content of each of SAL and acrolein immediately after the temperature rise was defined as 100%, a change of the content ratio was observed according to the calibration curve method by means of gas chromatography with an internal standard.
[Gas Chromatography Analysis]
Analysis Instrument: GC-14A (Available from Shimadzu Corporation) Detector: FID (Hydrogen Flame Ionization Detector)
Column used: DB-1701 (length: 50 m, film thickness: 1 μm, inner diameter: 0.32 mm) (available from Agilent Technologies)
Analysis conditions: Injection temperature: 250° C., detection temperature: 250° C.
Temperature rise conditions: 70° C.→(temperature rise at 5° C./min)→250° C.
Internal standard substance: Diglyme (diethylene glycol dimethyl ether)

[4] = format: physicochemical; conditions: pH 1.7
Experimental: Each of SAL and acrolein was dissolved in 0.5 mol/L of phosphoric acid buffer solutions having a pH different from each other, thereby preparing 0.1 wt % solutions. 50 mL of each of the solutions was charged in a sample vial in a nitrogen atmosphere and stored at 23±2° C. On the occasion when the content of each of SAL and acrolein at the time of preparation was defined as 100%, a change of the content ratio was observed according to the absolute calibration curve by means of high-performance liquid chromatography analysis.
[Preparation of Phosphoric Acid Buffer Solution]
pH 1.7: 4.9 g of 75% phosphoric acid and 7.8 g of sodium dihydrogen phosphate dihydrate were dissolved in 200 mL of distilled water.
pH 6.2: 7.8 g of sodium dihydrogen phosphate dihydrate and 7.1 g of disodium hydrogen phosphate were dissolved in 200 mL of distilled water.
pH 8.1: 0.3 g of sodium dihydrogen phosphate dihydrate and 13.9 g of disodium hydrogen phosphate were dissolved in 200 mL of distilled water.
[High-Performance Liquid Chromatography Analysis]
Analysis Instrument: Prominence System (Available from Shimadzu Corporation)
Column used: Cadenza CD-C18 (length: […], inner diameter: 4.6 mm)
Developing solution: H2O/MeOH=45/55 (volume ratio), H3PO4=1 mol/L

[5] = cited from earlier work
Rat = conditions: versus acrolein; cited from earlier work
[6] = 50° C., nitrogen atmosphere, 0 hour (defined as 100%)
[7] = 50° C., nitrogen atmosphere, 2 hours elapsed
[8] = 50° C., nitrogen atmosphere, 4 hours elapsed
[9] = 50° C., nitrogen atmosphere, 6 hours elapsed
[10] = 50° C., nitrogen atmosphere, 10 hours elapsed

Row | SMILES | removal rate [1] [%] | removal rate [2] [%] | thermal stability (comparison in words) [3] | content ratio [3, 6] [%] | content ratio [3, 7] [%] | content ratio [3, 8] [%] | content ratio [3, 9] [%] | content ratio [3, 10] [%] | pH stability (comparison in words) [4] | Fire Service Act water solubility class [5] | toxicity and safety (comparison in words) (Rat) | ratio lost ([3]; 50° C., nitrogen atmosphere, after 10 hours) [%]
1 | CC(C)=CC=O [SAL, 3-methyl-2-butenal] | 33 | 35 | extremely high in the thermal stability as compared with acrolein | 100.0 | 100.0 | 100.0 | 100.0 | 99.9 | extremely high in the pH stability as compared with acrolein | water-insoluble | extremely low in the toxicity and safe as compared with acrolein | 
2 | CC(C)=CCCC(C)=CC=O [Citral, 3,7-dimethyl-2,6-octadienal] |  | 20 |  |  |  |  |  |  |  |  | extremely low in the toxicity and safe as compared with acrolein | 
3 | C=CC=O [Acrolein, acrolein, reference compound] | 33 |  |  | 100.0 | 99.5 | 98.3 | 98.1 | 96.6 |  | water-insoluble |  | 3.4

From US11291947B2, “Composition for removing sulfur-containing compound” (KURARAY CO., LTD., priority 2016, dated 2022)
